Like-named read-outs stand apart in the source and are kept apart here.
Assays:
[1] = biological target: T1, SARS-CoV-2 nsp3-mac1 (Severe acute respiratory syndrome coronavirus 2, UniProt P0DTD1); test: biochemical; type: biochemical; conditions: SARS-CoV-2 nsp3 macrodomain TR-FRET single point, n=2
[2] = biological target: T1, SARS-CoV-2 nsp3-mac1; test: biochemical; set-up: SARS-CoV-2 nsp3 macrodomain TR-FRET single point, per cent inhibition, n=2
[3] = read-out: perc_inhibition_mean, batch_name=ASAP-0000319-001
[4] = read-out: perc_inhibition_mean, batch_name=ASAP-0000320-001
[5] = read-out: perc_inhibition_mean, batch_name=ASAP-0000321-001
[6] = read-out: perc_inhibition_mean, batch_name=ASAP-0000322-001
[7] = read-out: perc_inhibition_mean, batch_name=ASAP-0000323-001
[8] = read-out: perc_inhibition_mean, batch_name=ASAP-0000324-001
[9] = read-out: perc_inhibition_mean, batch_name=ASAP-0000325-001
[10] = read-out: perc_inhibition_mean, batch_name=ASAP-0000326-001
[11] = read-out: perc_inhibition_mean, batch_name=ASAP-0000327-001
[12] = read-out: perc_inhibition_mean, batch_name=ASAP-0000328-001
[13] = read-out: perc_inhibition_mean, batch_name=ASAP-0000329-001
[14] = read-out: perc_inhibition_mean, batch_name=ASAP-0000330-001
[15] = read-out: perc_inhibition_mean, batch_name=ASAP-0000331-001
[16] = read-out: perc_inhibition_mean, batch_name=ASAP-0000332-001
[17] = read-out: perc_inhibition_mean, batch_name=ASAP-0000333-001
[18] = read-out: perc_inhibition_mean, batch_name=ASAP-0000334-001
[19] = read-out: perc_inhibition_mean, batch_name=ASAP-0000335-001
[20] = read-out: perc_inhibition_mean, batch_name=ASAP-0000336-001

SMILES: Nc1ncc(C(=O)N(CCC(=O)N2CCNCC2)Cc2cccc(Cl)c2)cn1 [ASAP-0000319]
- perc_inhibition_mean ([1]; concentration 49.75 uM): -2.76%
- perc_inhibition_mean ([1]; concentration 99.5 uM): -1.726%
- inhibition at 49.75 µM [2, 3]: -2.76%
- inhibition at 99.5 µM [2, 3]: -1.73%

SMILES: CCn1cc(CNC(=O)c2ccc(NC(=O)Nc3ccccc3)cc2)cn1 [ASAP-0000320]
- perc_inhibition_mean ([1]; concentration 49.75 uM): -1.76%
- perc_inhibition_mean ([1]; concentration 99.5 uM): 3.797%
- inhibition at 49.75 µM [2, 4]: -1.76%
- inhibition at 99.5 µM [2, 4]: 3.8%

SMILES: Cn1c(C(=O)N(CCC(=O)N2CCNCC2)Cc2cccc(Cl)c2)cnc1O [ASAP-0000321]
- perc_inhibition_mean ([1]; concentration 49.75 uM): -4.765%
- perc_inhibition_mean ([1]; concentration 99.5 uM): -2.757%
- inhibition at 49.75 µM [2, 5]: -4.76%
- inhibition at 99.5 µM [2, 5]: -2.76%

SMILES: CC(C)n1nccc1NC(=O)c1ccc(NC(=O)Nc2ccccc2)cc1 [ASAP-0000322]
- perc_inhibition_mean ([1]; concentration 49.75 uM): -1.998%
- perc_inhibition_mean ([1]; concentration 99.5 uM): -0.924%
- inhibition at 49.75 µM [2, 6]: -2%
- inhibition at 99.5 µM [2, 6]: -0.924%

SMILES: O=C(CCN(Cc1cccc(Cl)c1)C(=O)[C@@H]1CNCC12CC2)N1CCNCC1 [ASAP-0000323]
- perc_inhibition_mean ([1]; concentration 49.75 uM): 4.205%
- perc_inhibition_mean ([1]; concentration 99.5 uM): 2.382%
- inhibition at 49.75 µM [2, 7]: 4.21%
- inhibition at 99.5 µM [2, 7]: 2.38%

SMILES: CO[C@@H]1CCCN(C(=O)c2cnn3ccc(C4CCN(C(=O)c5ccccc5)CC4)cc23)C1 [ASAP-0000324]
- perc_inhibition_mean ([1]; concentration 49.75 uM): 22.606%
- perc_inhibition_mean ([1]; concentration 99.5 uM): 39.842%
- inhibition at 49.75 µM [2, 8]: 22.6%
- inhibition at 99.5 µM [2, 8]: 39.8%

SMILES: N[C@@H]1CCC[C@@H](C(=O)N(CCC(=O)N2CCNCC2)Cc2cccc(Cl)c2)C1 [ASAP-0000325]
- perc_inhibition_mean ([1]; concentration 49.75 uM): -0.755%
- perc_inhibition_mean ([1]; concentration 99.5 uM): -1.468%
- inhibition at 49.75 µM [2, 9]: -0.755%
- inhibition at 99.5 µM [2, 9]: -1.47%

SMILES: O=C(CCN(Cc1cccc(Cl)c1)C(=O)C1(O)CCCC1)N1CCNCC1 [ASAP-0000326]
- perc_inhibition_mean ([1]; concentration 49.75 uM): -1.213%
- perc_inhibition_mean ([1]; concentration 99.5 uM): -1.781%
- inhibition at 49.75 µM [2, 10]: -1.21%
- inhibition at 99.5 µM [2, 10]: -1.78%

SMILES: Cc1nccc(C(=O)N2CCC(c3ccn4ncc(C(=O)N5CCCCC5)c4c3)CC2)n1 [ASAP-0000327]
- perc_inhibition_mean ([1]; concentration 49.75 uM): 16.537%
- perc_inhibition_mean ([1]; concentration 99.5 uM): 27.369%
- inhibition at 49.75 µM [2, 11]: 16.5%
- inhibition at 99.5 µM [2, 11]: 27.4%

SMILES: O=C(c1cn2ncccc2n1)N1CCC(c2ccn3ncc(C(=O)N4CCCCC4)c3c2)CC1 [ASAP-0000328]
- perc_inhibition_mean ([1]; concentration 49.75 uM): 30.741%
- perc_inhibition_mean ([1]; concentration 99.5 uM): 53.75%
- inhibition at 49.75 µM [2, 12]: 30.7%
- inhibition at 99.5 µM [2, 12]: 53.8%

SMILES: O=C(c1cc(O)ccn1)N1CCC(c2ccn3ncc(C(=O)N4CCCCC4)c3c2)CC1 [ASAP-0000329]
- perc_inhibition_mean ([1]; concentration 49.75 uM): 17.623%
- perc_inhibition_mean ([1]; concentration 99.5 uM): 32.165%
- inhibition at 49.75 µM [2, 13]: 17.6%
- inhibition at 99.5 µM [2, 13]: 32.2%

SMILES: Cc1n[nH]c(C)c1C(=O)N1CCC(c2ccn3ncc(C(=O)N4CCCCC4)c3c2)CC1 [ASAP-0000330]
- perc_inhibition_mean ([1]; concentration 49.75 uM): 10.806%
- perc_inhibition_mean ([1]; concentration 99.5 uM): 23.296%
- inhibition at 49.75 µM [2, 14]: 10.8%
- inhibition at 99.5 µM [2, 14]: 23.3%

SMILES: Cn1cnc(C(=O)N(CCC(=O)N2CCNCC2)Cc2cccc(Cl)c2)n1 [ASAP-0000331]
- perc_inhibition_mean ([1]; concentration 49.75 uM): -1.441%
- perc_inhibition_mean ([1]; concentration 99.5 uM): -0.25%
- inhibition at 49.75 µM [2, 15]: -1.44%
- inhibition at 99.5 µM [2, 15]: -0.25%

SMILES: Cc1cocc1C(=O)N(CCC(=O)N1CCNCC1)Cc1cccc(Cl)c1 [ASAP-0000332]
- perc_inhibition_mean ([1]; concentration 49.75 uM): 1.398%
- perc_inhibition_mean ([1]; concentration 99.5 uM): 0.51%
- inhibition at 49.75 µM [2, 16]: 1.4%
- inhibition at 99.5 µM [2, 16]: 0.51%

SMILES: Cn1nncc1C(=O)N(CCC(=O)N1CCNCC1)Cc1cccc(Cl)c1 [ASAP-0000333]
- perc_inhibition_mean ([1]; concentration 49.75 uM): 0.447%
- perc_inhibition_mean ([1]; concentration 99.5 uM): -2.15%
- inhibition at 49.75 µM [2, 17]: 0.447%
- inhibition at 99.5 µM [2, 17]: -2.15%

SMILES: O=C(CCN(Cc1cccc(Cl)c1)C(=O)c1cnon1)N1CCNCC1 [ASAP-0000334]
- perc_inhibition_mean ([1]; concentration 49.75 uM): -2.442%
- perc_inhibition_mean ([1]; concentration 99.5 uM): -1.082%
- inhibition at 49.75 µM [2, 18]: -2.44%
- inhibition at 99.5 µM [2, 18]: -1.08%

SMILES: O=C(CCN(Cc1cccc(Cl)c1)C(=O)c1ccc(F)cn1)N1CCNCC1 [ASAP-0000335]
- perc_inhibition_mean ([1]; concentration 49.75 uM): 6.758%
- perc_inhibition_mean ([1]; concentration 99.5 uM): 6.737%
- inhibition at 49.75 µM [2, 19]: 6.76%
- inhibition at 99.5 µM [2, 19]: 6.74%

SMILES: Nc1c(O)cccc1C(=O)N(CCC(=O)N1CCNCC1)Cc1cccc(Cl)c1 [ASAP-0000336]
- perc_inhibition_mean ([1]; concentration 49.75 uM): -1.238%
- perc_inhibition_mean ([1]; concentration 99.5 uM): 1.457%
- inhibition at 49.75 µM [2, 20]: -1.24%
- inhibition at 99.5 µM [2, 20]: 1.46%

Source: paper doi:10.1101/2024.08.19.608619, “Discovery of potent SARS-CoV-2 nsp3 macrodomain inhibitors uncovers lack of translation to cellular antiviral response” (bioRxiv, 2024)
